The record followed here is PubChem BioAssay AID493102 (Broad Institute, 2011).

The subject of the test is SK-MEL-5 TRPM1-promoter luciferase reporter, 24 h. Put plainly: reducers of TRPM1 reporter luminescence, concentration series – cell-based, SK-MEL-5, cherry-picked, set 4, MITF inhibitor project, dose response (AID 493102).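 Also: actives lower the luciferase signal so the potency reflects inhibition of reporter expression.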

For `CN(C)CCCN(C(=O)c1ccc(Cl)s1)c1nc2cc3c(cc2s1)OCO3`, the half-maximal activity concentration (AC50) – broadly, the concentration at which the activity in the assay is half-maximal – was 22.9 µM.

Consider `Cn1c(SC2=CS(=O)(=O)c3ccccc32)nc2ccccc21`, for which the half-maximal activity concentration (AC50) was 6.72 µM.

Consider `O=C(CCCN1C(=O)S/C(=C\c2ccccc2)C1=O)NNC(=O)c1ccccc1O`, for which the half-maximal activity concentration (AC50) was 33.9 µM.

In the case of `CC1(C)CC(=O)C=C(NC2=CC3OC(c4ccccc4)OCC3OC2=O)C1` (stereo unspecified), the AC50 is 7.71 µM.

Consider `CCOc1cc(/C=C\[N+](=O)[O-])ccc1OCC(=O)N1CCOCC1`, for which the AC50 is 7.35 µM.

Consider `COc1cc(NC(=O)c2[nH]cnc2C(N)=O)cc(C(=O)Nc2cccc(C(F)(F)F)c2)c1`, for which the AC50 is 10.9 µM.

`CCC(=O)N1CCN(c2ccc(NC(=O)c3ccc([N+](=O)[O-])o3)cc2Cl)CC1`: the AC50 is 6.08 µM.

As for `Cc1cc(C)c2c(N)c3cccc(C)c3nc2n1`, the half-maximal activity concentration (AC50) is 3.21 µM.

As for `COc1ccc(C(=O)/C=C/C(=O)N(CC(=O)NC2CCCCC2)Cc2ccccc2OC)c(O)c1`, the concentration at half-maximal activity (AC50) was 4.04 µM.

Take `Cc1cc(C)nc(S/C=C/C(=O)c2ccccc2F)n1`: the AC50 was 5.38 µM.

As to `CCN1CCN(/C=N/c2nc3c(s2)CCCC3)CC1`, the AC50 is 6.42 µM.

For `COc1ccc(C(=O)N/N=C/c2cc(Br)ccc2O)cc1OC`, the half-maximal activity concentration (AC50) was 4.76 µM.

As for `COc1ccccc1OCC(=O)N/N=C/C=C/c1ccc([N+](=O)[O-])o1`, the half-maximal activity concentration (AC50) is 7.39 µM.

Regarding `Oc1ccc(CNc2ccccc2F)c2cccnc12`, the AC50 is 15.1 µM.

As for `CCN1CCc2c(sc(NC(=O)c3ccc(S(=O)(=O)N4CCCCCC4)cc3)c2C(=O)NC)C1`, the AC50 is 16.6 µM.

Take `O=C(N/N=C/c1ccc([N+](=O)[O-])s1)c1cccc(Br)c1`: the AC50 was 4.83 µM.

For the molecule `C=C1C(=O)O[C@@H]2[C@H]1[C@@H](OC(=O)/C(C)=C/C)C/C(C)=C\C(=O)/C=C(\C)[C@@H]2O`, the concentration at half-maximal activity (AC50) was 7.07 µM.

On to `COc1ccccc1NS(=O)(=O)c1cccc(C(=O)N/N=C/c2ccc([N+](=O)[O-])o2)c1`, for which the AC50 is 4.3 µM.

Regarding `COc1ccccc1-c1cc(C(F)(F)F)nc(S(C)(=O)=O)n1`, the concentration at half-maximal activity (AC50) is 6.81 µM.

Consider `CC(=NNc1nc2ccccc2o1)c1cc2ccccc2cn1`, for which the AC50 is 0.175 µM.

Regarding `COc1ccc(C(C(=O)NC2CCCCC2)N(C(=O)CCl)c2ccc(OC)cc2)cc1` (stereo unspecified), the AC50 is 9.27 µM.

Consider `O=C(N/N=C/c1ccc([N+](=O)[O-])o1)c1ccccc1-n1cccc1`, for which the concentration at half-maximal activity (AC50) was 17.1 µM.

Regarding `COc1cc(C2C(C#N)=C(N)Oc3cc(N(C)C)ccc32)cc2c1OCO2` (stereo unspecified), the concentration at half-maximal activity (AC50) is 0.601 µM.

With `O=C(Nc1ccc(N2CCN(C(=O)c3ccc(Cl)cc3)CC2)cc1)c1ccc([N+](=O)[O-])o1`, the half-maximal activity concentration (AC50) was 7.32 µM.

`CC(=O)Nc1ccc(NC(=O)c2nc(S(=O)(=O)Cc3ccccc3)ncc2Cl)cc1`: the AC50 was 12.8 µM.

Take `O=C(CNc1cccc2ccccc12)N/N=C/c1ccc([N+](=O)[O-])o1`: the AC50 is 5.04 µM.

On to `CC1=C(CC(=O)c2ccccc2)C(=O)c2ccccc2C1=O`, for which the AC50 was 7.15 µM.

For `c1ccc2cc3c(NCCN4CCOCC4)ccnc3cc2c1`, the half-maximal activity concentration (AC50) is 2.91 µM.

Regarding `COc1ccc(C(=O)/C=C/C(=O)N(CC(=O)NC2CCCCC2)Cc2ccccc2)c(O)c1`, the AC50 was 5.24 µM.

Consider `COc1ccc(NS(=O)(=O)c2cc(NC(=O)CNC(=O)c3cccc(OC)c3)ccc2C)cc1`, for which the half-maximal activity concentration (AC50) was 11 µM.

As to `COc1ccccc1N1C(=O)N(C(C)=O)C2C1Nc1ccccc1N2C` (stereo unspecified), the AC50 is 10.5 µM.

As for `COc1ccc(-n2cc(-c3ccc(C)cc3)[n+]3c2SCC3)cc1`, the half-maximal activity concentration (AC50) is 2.91 µM.

Regarding `Cc1cc(Br)ccc1NC(=O)CNC(=O)Cn1ncc(Cl)c(Cl)c1=O`, the AC50 was 7.47 µM.

In the case of `O=C(Nc1ccc(N2CCN(C(=O)c3ccccc3)CC2)cc1)c1ccc([N+](=O)[O-])o1`, the half-maximal activity concentration (AC50) is 17.9 µM.

For the molecule `Nc1ccc2c(c1)OC1(CCCC1)O2`, the AC50 is 11.2 µM.

`Cc1ccc(C(=O)c2no[n+]([O-])c2C(=O)c2ccc(C)cc2)cc1`: the AC50 is 16.7 µM.

Turning to `CCOC(=O)CSC1=NC(=O)/C(=C\c2ccc(OC(C)=O)cc2)S1`, the concentration at half-maximal activity (AC50) is 5.13 µM.

For `CCOc1ccc(-c2noc(CCC(=O)O)n2)cc1`, the AC50 was 2.61 µM.

Turning to `O=C(Cn1ncc(Cl)c(Cl)c1=O)NCC1CCCCC1`, the AC50 was 7.39 µM.

`CCCCNC(=O)Nc1ccc(C2SCCS2)cc1`: the AC50 was 35.3 µM.

As to `COc1ccc(-n2c(C)cc(C(=O)CCl)c2C)cc1`, the AC50 is 6.44 µM.

On to `COc1cccc(NC(=O)Nc2cccc(C(=O)O)c2)c1`, for which the AC50 was 2.37 µM.

With `CN(C)S(=O)(=O)c1ccc(-c2csc(N/N=C/c3ccc(O)cc3)n2)cc1`, the concentration at half-maximal activity (AC50) is 4.6 µM.

Turning to `O=C(O)c1cc(N/N=C/C(Cl)=C/c2ccccc2)ccc1Cl`, the AC50 was 10.4 µM.

`CCOC(=O)c1c(C)oc2c1C(=O)c1ccccc1C2=O`: the AC50 was 3.18 µM.

Turning to `CC1CCN(c2nc3ccc(C(=O)O)cc3s2)CC1`, the AC50 is 1.25 µM.

As for `C/C(=N/NC(=O)C(O)(c1ccccc1)c1ccccc1)c1ccc([N+](=O)[O-])o1`, the concentration at half-maximal activity (AC50) was 9.84 µM.

Take `CCSCCc1nnc(NC(=O)Nc2cccc(C(F)(F)F)c2)s1`: the AC50 was 8.99 µM.

As to `Cc1ccc(NC(=O)c2ccc([N+](=O)[O-])o2)cc1S(=O)(=O)N1CCOCC1`, the concentration at half-maximal activity (AC50) is 11.4 µM.

Turning to `O=C(CNc1ccc2ccccc2c1)N/N=C/c1ccc([N+](=O)[O-])o1`, the AC50 is 4.95 µM.

On to `CC(=O)Cn1ncc(Br)c(Br)c1=O`, for which the AC50 was 15.8 µM.

`CC1CC(C)C[N+](=C2C=C(N3CCCC3)CC(C)(C)C2)C1` (stereo unspecified): the AC50 was 2.24 µM.

As to `Cc1cc(C)c[n+](C2=C([O-])c3ccccc3C(=O)/C2=N\S(=O)(=O)c2cccs2)c1`, the AC50 is 2.95 µM.

In the case of `Cc1nn(-c2ccccc2Cl)c(Cl)c1/C=N/Nc1cccc(C(=O)O)c1`, the AC50 was 5.5 µM.

With `Cc1ccc2c(C(=O)CCl)c(C)[nH]c2c1`, the AC50 is 8.17 µM.

In the case of `Cc1cc(C)n(-c2ccc(C(=O)Nc3ccc(C)c(S(=O)(=O)N4CCOCC4)c3)cc2)n1`, the AC50 was 4.54 µM.

With `O=C(/C=C/c1ccc(Cl)c([N+](=O)[O-])c1)c1ccc(O)cc1`, the AC50 was 17.4 µM.

Take `CCOC(=O)c1cc([N+](=O)[O-])c([N+](=O)[O-])cc1NC(C)=O`: the AC50 was 24.2 µM.

With `Cc1ccc(-c2cn3cc(C)ccc3n2)cc1`, the AC50 is 2.03 µM.

In the case of `Cc1ccc(C(=O)c2cccc(N)c2)cc1C`, the AC50 is 3.62 µM.

`CCC[n+]1c(C)sc2c3c(ccc21)CCCC3`: the AC50 is 9.87 µM.

For `O=c1nc(N/N=C/c2ccccn2)cn[nH]1`, the AC50 is 4.65 µM.

Regarding `CCOc1ccc2nc(NC3=NC(c4ccc(OC)cc4)CC(=O)N3)nc(C)c2c1` (stereo unspecified), the concentration at half-maximal activity (AC50) is 9.49 µM.

As to `COc1cc(/C=C/C(=O)N2CCC=CC2=O)cc(OC)c1OC`, the AC50 was 7.4 µM.

Take `O=C1NC(=O)N(CCc2ccc(F)cc2)C(=O)/C1=C\C=C\c1ccccc1`: the AC50 is 8.26 µM.

As for `Cc1cc(C)c(C#N)c(SCc2nnc(-c3ccccc3)o2)n1`, the AC50 was 0.024 µM.

Consider `Cc1nc2ccccn2c1C(=O)/C=C/c1cccc([N+](=O)[O-])c1`, for which the AC50 is 6.9 µM.

For the molecule `O=C1NC(=S)NC(=O)C1=Cc1cccc2cc3ccccc3cc12`, the AC50 is 4.81 µM.

With `CCC(=O)N1CCN(c2ccc(Cl)cc2NC(=O)c2ccc([N+](=O)[O-])o2)CC1`, the concentration at half-maximal activity (AC50) is 12.4 µM.

Turning to `CCOc1ccc(OCc2ccc(C(=O)N/N=C(\C)c3ccccn3)cc2)cc1`, the AC50 was 3.64 µM.

As for `COc1cccc2c1C(=O)C=C(C)C2=O`, the AC50 is 7.83 µM.
